Key:
[1] = test system: PC-3Luc cells; assay: Bioluminescent in vivo model of metastasis (Examples 1 and 2); parameters: species or system male SCID mice; details: Day 35; 2 mg/Kg twice weekly i.p. from Day 14
Description: Bioluminescent in vivo model of metastatsis—Bioluminescent imaging of PC-3^Luc was preformed as previously described through The University of Michigan Small Animal Imaging Resource facility (MSAIR) (Kalikin 2003). Briefly, PC-3Luc cells were introduced into male SCID mice (5-6 wks) by intracardiac injections. Mice were serially imaged weekly for 6 weeks using a CCD IVIS™ system using a 50 mm lens (Xenogen Corp, Alameda, Calif.) and the results were analyzed using […] software (Xenogen Corp.). Mice were separated into one of five groups; 1) PBS control, 2) anti-hIgG control human antibody, 3) anti-cVaM control mouse antibody, 4) anti-MCP1 (human), 5) anti-MCP1/JE (mouse). Treatment began at week 2 post-intracardiac injection and mice received 2 mg/Kg antibody twice weekly by intraperitoneal injection. Mice were injected with luciferin (40 mg/mL) intraperitoneally and ventral images were acquired 15 min post-injection under 1.75% isofluorane/air anesthesia. Total tumor burden of each animal was calculated using regions of interest (ROIs) that encompassed the entire animal. Animals were sacrificed after week 6 image and individual organs were harvested and immediately placed in formalin.

[2] = test system: PC-3Luc cells; assay: Bioluminescent in vivo model of metastasis (Example 4, antibodies and/or docetaxel); parameters: species or system male SCID mice
Description: Bioluminescent imaging of PC-3Luc was preformed as previously described through The University of Michigan Small Animal Imaging Resource facility (MSAIR) (Loberg et al., 2006. Neoplasia. 8:578-586). Briefly, PC-3Luc cells were introduced into male SCID mice (5-6 wks of age) by intracardiac injections. Mice were serially imaged weekly for up to 12 weeks using a CCD IVIS system using a 50 mm lens (Xenogen Corp, Alameda, Calif.) and the results were analyzed using LIVING IMAGE software (Xenogen Corp.). Mice were separated into groups and treatment began at week 2 post-intracardiac injection and mice received 2 mg/Kg antibody twice weekly by intraperitoneal (i.p.) injection (for up to eight weeks) and/or 40 mg/Kg Taxotere i.p. injection once per week for three weeks. Mice were injected with luciferin (40 mg/mL) intraperitoneally and ventral images were acquired 15 min postinjection under 1.75% isofluorane/air anesthesia. Total tumor burden of each animal was calculated using regions of interest (ROIs) that encompassed the entire animal. Animals were sacrificed after week 6 image and individual organs were harvested and immediately placed in formalin.

[3] = test system: PC-3Luc cells; assay: WST-1 proliferation assay with hrCCL2 and anti-CCL2 antibodies; format: cell-based, human; details: 72 hours, antibodies 30 μg/mL
Description: Cells were seeded at a density of 1×10^5 cells/ml for PC-3Luc cells in a 96 well plate in RPMI+10% FBS (FCS is mentioned in previous section). Twenty-four hours after seeding, media was changed to either serum-free RPMI or RPMI+10% FBS. Cell growth was determined 72 hours later using the WST-1 assay (Pierce Biotech, Inc.) following the manufacturer's instructions.

[4] = test system: PC-3 cells; assay: Transwell migration assay toward hrCCL2; format: cell-based, human; details: hrCCL2 100 ng/mL, 24 hours
Description: (§1) Increasing concentrations of CCL2 (1-100 ng/mL) or conditioned media was added to the lower chamber of a 24-well plate. Cells were harvested by EDTA release and resuspended in serum free media at 5×10^4 cells/ml. 2.5×10^4 cells were added to the upper chamber of the transwell insert and incubated for 24 hours at 37° C. and 5% CO^2 atmosphere. At the end of the incubation period, the cells were fixed with 4% formaldehyde in PBS for 5 minutes. Non-adherent cells were removed from inside the inserts with a cotton-tipped applicator. Cells which had migrated to the underside of the insert were stained with 0.5% crystal violet for 5 minutes and rinsed thoroughly with tap water. Inserts were allowed to dry and the cells were counted using an inverted microscope.

[5] = test system: HDMVEC (human dermal microvacular endothelial cells); assay: Endothelial tube formation assay in VCaP conditioned media; format: cell-based; details: 30 μg/mL in VCaP conditioned media; vs isotype control antibody
Description: In vitro tube formation was performed as previously described (Zhou et al., Int J Cancer 110 (2004) 800-806). Growth factor reduced […] was diluted with cold serum-free medium to a concentration of 10 mg/ml. 50 μl of the solution was added to each well of a 96-well plate and allowed to form a gel at 37° C. for 30 min. HDMVEC (human dermal microvacular endothelial cells) cells (150,000 cells/ml) in VCaP conditioned media (VCaP CM) were added to each well and incubated overnight at 37° C. in 5% CO2. […] Under these conditions, EC will form delicate networks of tubes that are detectable within 2-3 h and are fully developed after 8-12 h. After overnight incubation the wells were washed, and the […] and its endothelial tubes were fixed with 3% paraformaldehyde. Tube formation was quantified by counting the number of sprouts that developed per objective field (100×) and assays were performed in triplicate from 3 independent experiments.

[6] = test system: U937 premonocytic cells; assay: Macrophage migration assay (modified Boyden chamber); format: cell-based, human; details: VCaP conditioned media; pre-incubation 30 μg/mL
Description: as §1, with “Increasing concentrations of CCL2 (1-100 ng/mL) or conditioned media was added to the lower chamber of a 24-well plate.” left out, “by 0.5 μM” for “by”, “CO2” for “CO^2”, “with” for “with a”, “swabs.” for “applicator.”, “that” for “which”

[7] = test system: VCaP cells; assay: Immunoblot analysis of CCL2 stimulated VCaP cells; format: cell-based, human; details: CCL2 100 ng/mL for 24 hours
Description: Cells were lysed in RIPA buffer (50 mM Tris-HCl, pH 7.4, 1% NP-40, 150 mM NaCl, 1 mM EDTA, 1 mM PMSF, 1 mM Na3VO4, 1 mM NaF, 1 μM okadaic acid and 1 μg/mL aprotinin, leupeptin and pepstatin). Proteins were separated under reducing conditions by SDS-PAGE and transferred onto nitrocellulose membranes. The membranes were blocked with 5% milk in TBST (0.1% Tween in TBS) for 1 hour at room temperature, then were incubated overnight at 4° C. with primary antibodies. Membranes were washed 3 times prior to incubation with HRP-conjugated secondary antibodies (Cell Signaling) for 1 hour at room temperature. Protein expression was visualized by ECL chemiluminescence (Promega, Madison, Wis.) and quantitated using Image J software (NCl, Bethesda, Md.).

[8] = target: mouse CCL2/JE (Mus musculus, UniProt P10148); assay: Cross-reactivity / neutralization; format: binding
mouse CCL2/JE, sequence (P10148 24-148): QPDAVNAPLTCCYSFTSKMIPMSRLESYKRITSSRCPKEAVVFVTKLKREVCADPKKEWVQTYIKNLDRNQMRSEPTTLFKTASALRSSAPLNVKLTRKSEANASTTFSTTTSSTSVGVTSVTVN

CNTO888: human IgG1κ antibody that neutralizes human CCL2
reduction in overall tumor burden compared to control antibody [1]: 46.52% | reduction in overall tumor burden compared to control antibody ([2]; Day 35, 2 mg/Kg twice weekly i.p. for three weeks from Day 14): 46.52% | reduction in tibia-specific tumor burden ([2]; Day 35, compared to control antibody): 45.49% | animals of group counted at Wk 6 (tumor regression, Table 2) ([2]; Wk 6 = First week after cessation of Taxotere): 1 of 9 | total tumor burden at Day 35 ([2]; antibodies 2 mg/Kg i.p. twice weekly, docetaxel 40 mg/Kg i.p.): 52.78 % of PBS-treated animals | cell viability (WST-1) as a measure of proliferation, mean ±SD ([3]; CCL2 10 ng/mL): 112.52±10.2 | cell viability (WST-1) as a measure of proliferation, mean ±SD ([3]; CCL2 100 ng/mL): 132.93±17.08 | hrCCL2-induced migration, mean ±SD [4]: 217±29 | number of capillary-like tubes formed [5]: significantly reduced | number of migrating U937 cells [6]: 225±111 | CCL2 induced Akt phosphorylation and p44/p42 MAPK phosphorylation [7]: attenuated | cross-reaction with or neutralization of mouse CCL2/JE [8]: do not cross-react with or neutralize

Source: patent publication US20080118437A1, “Diagnosis and treatment O prostate cancer” (Regents of the University of Michigan, priority 2006, published 2008)
